# Test results: patent US20190137505A1 (THE ARIZONA BOARD OF REGENTS ON BEHALF OF THE UNIVERSITY OF …, priority 2015, published 2019)
# Biological target: T1, glu-Pg (Homo sapiens, UniProt P00747)
# T1 construct: Glu-Pg, uPA, tPA, fibrinogen, and chromogenic substrate for Pn were purchased from Molecular Innovations (Novi, Mich.); purchased Molecular Innovations (Novi, Mich.)
# Assay: Reaction of MG-modified Pg with activating enzymes (STK, tPA, uPA), SDS-PAGE and silver staining
# Format: biochemical
# Conditions: for Pn heavy and light chain bands versus unmodified gel: MG-modified Pg, higher concentration of MG, up to 90 minutes
# Procedure: Physiologically relevant concentrations (Chaplen et al., 1998, Ahmed et al., 2002) of MG were utilized for all LC-MS/MS, silver stain and enzyme inhibition analyses of Pg. glu-Pg (10 μg) was incubated with MG (1-500 μM) at 37° C. for 24 Hrs. Samples for STK assay were further processed before being resolved on a 12% SDS-PAGE gel following removal from 37° C. oven.
# Upon removal from the 37° C. oven, Pg was buffer exchanged in a 3-kDa spin-filter (Amicon YM-3; Millipore)) to ensure the removal of MG from the sample. Following centrifugation, the volume of each sample was brought to 150 μL, and divided into five 30 μL samples for different incubations. STK (3U), tPA (100 nM) or uPA (100 nM) was used per sample. STK, tPA or uPA was incubated with Pg for 0, 5, 15, 30, 60, or 90 min. At the conclusion of the enzyme incubation, samples were denatured with 5% BME and heated for 5 minutes at 100° C. on a heat block prior to being resolved on a 12% SDS-PAGE gel.
# Gels were stained using a modified version of the method from (Blum et al., 1987). Gel was fixed overnight in a solution of 50% MeOH, 12% glacial acetic acid, and 0.0185% formaldehyde. The gel was washed 2×20 min with 50% EtOH followed by 20 minutes with 30% EtOH. The gel was subjected to a pretreatment solution of 0.2 mg/ml of sodium thiosulfate (Na2S2O3) for 1 minute and was rinsed 3×20 sec with MilliQ H2O. […] Following two 20-second MilliQ H2O washes, the gel was immediately developed with a solution of 60 mg/ml Na2CO3, 4 μg/ml sodium thiosulfate, and 0.0185% formaldehyde until protein bands were visible. Upon acceptable staining progression, the gel was rinsed twice for 2 min with MilliQ H2O before the reaction was stopped with a solution of 50% MeOH and 12% glacial acetic acid. Gel was washed and stored in 50% MeOH. Gel was imaged with a ChemiDoc XRS System (BioRad).
# T1 sequence (P00747 20-810 limits assumed): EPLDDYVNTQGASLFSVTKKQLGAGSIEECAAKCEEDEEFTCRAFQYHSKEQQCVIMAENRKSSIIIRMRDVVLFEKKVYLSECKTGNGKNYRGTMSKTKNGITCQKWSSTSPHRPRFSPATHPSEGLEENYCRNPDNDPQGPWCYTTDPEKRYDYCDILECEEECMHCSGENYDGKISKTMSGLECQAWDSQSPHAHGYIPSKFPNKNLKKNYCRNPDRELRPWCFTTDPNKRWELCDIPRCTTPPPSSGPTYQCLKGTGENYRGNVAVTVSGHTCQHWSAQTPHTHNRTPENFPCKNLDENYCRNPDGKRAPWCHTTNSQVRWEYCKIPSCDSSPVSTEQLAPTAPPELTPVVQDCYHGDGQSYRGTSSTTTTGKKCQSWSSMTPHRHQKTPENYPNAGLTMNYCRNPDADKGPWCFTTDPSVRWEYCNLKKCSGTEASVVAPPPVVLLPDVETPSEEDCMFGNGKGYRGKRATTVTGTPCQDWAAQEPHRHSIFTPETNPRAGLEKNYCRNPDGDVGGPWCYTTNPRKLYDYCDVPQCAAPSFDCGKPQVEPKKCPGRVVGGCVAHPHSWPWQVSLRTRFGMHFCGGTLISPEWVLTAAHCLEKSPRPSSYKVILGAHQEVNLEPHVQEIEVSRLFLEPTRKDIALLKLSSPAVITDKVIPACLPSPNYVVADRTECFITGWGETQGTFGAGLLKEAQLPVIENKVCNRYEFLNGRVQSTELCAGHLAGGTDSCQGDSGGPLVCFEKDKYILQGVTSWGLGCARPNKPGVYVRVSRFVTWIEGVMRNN
compound,measurement,setting,value
"CC(=O)C=O [MG, Methylglyoxal]",Activation of Pg by STK (cleavage products on silver-stained gel),"24-hr 100 μM MG-modified glu-Pg, STK 0 to 60 min",inhibited
same,Pn heavy and light chain bands versus unmodified gel,tPA,lesser amounts
same,Pn heavy and light chain bands versus unmodified gel,uPA,lesser amounts
